What was measured:
Type in all cases: in vivo
[1] = test system: Rice; assay: Pre-emergence herbicidal test, fibre trays (Example 33); details: 2.0 kg/ha, after 21 days
Protocol: (§1) The compounds were formulated for test by mixing an appropriate amount with 5 ml of an emulsion prepared by diluting 160 ml of a solution containing 21.S g per litre of "Span" 80 and 78.2 g per litre of "Tween" 20 in methylcyclohexanone to 500 ml with water. "Span" 80 is a Trade Mark for a surface-active agent comprising sorbitan monolaurate. "Tween" 20 is a Trade Mark for a surface-active agent comprising a condensate of sorbitan monolaurate with 20 molar proportions of ethylene oxide. Each 5 ml emulsion containing a test compound was'then diluted to 40 ml with water and sprayed on to young pot plants (post-emergence test) of the species named in Table 5 below. Damage to test plants was assessed after 14 days on a scale of 0 to 5 where 0 is 0 to 20% damage and 5 is complete kill. In a test for pre-emergence herbicidal activity, seeds of the test plants were sown in a shallow slit formed in the surface of soil in fibre trays. The surface was then levelled and sprayed, and fresh soil then spread thinly over the sprayed surface. Assessment of herbicidal damage was carried out after 21 days using the same scale of 0 to 5 as the post-emergence test. In both cases the degree of herbicidal damage was assessed by comparison with untreated control plants. A dash (-) means that no experiment was carried out.

[2] = test system: Sugar beet; assay: Post-emergence herbicidal test, young pot plants (Example 33); details: 2.0 kg/ha, after 14 days
Protocol: as §1

[3] = test system: Soy bean; assay: as above; details: 2.0 kg/ha, after 14 days
Protocol: as §1

[4] = test system: Chenopodium album; assay: as above; details: 2.0 kg/ha, after 14 days
Protocol: as §1

[5] = test system: Cotton; assay: as above; details: 2.0 kg/ha, after 14 days
Protocol: as §1

[6] = test system: Amaranthus retroflexus; assay: as above; details: 2.0 kg/ha, after 14 days
Protocol: as §1

[7] = test system: Ipomea purpurea; assay: as above; details: 2.0 kg/ha, after 14 days
Protocol: as §1

[8] = test system: Rape; assay: as above; details: 2.0 kg/ha, after 14 days
Protocol: as §1

[9] = test system: Polygonum aviculare; assay: as above; details: 2.0 kg/ha, after 14 days
Protocol: as §1

[10] = test system: Winter wheat; assay: Pre-emergence herbicidal test, fibre trays (Example 33); details: 2.0 kg/ha, after 21 days
Protocol: as §1

[11] = test system: Senecio vulgaris; assay: as above; details: 2.0 kg/ha, after 21 days
Protocol: as §1

[12] = test system: Sugar beet; assay: as above; details: 2.0 kg/ha, after 21 days
Protocol: as §1

[13] = test system: Soy bean; assay: as above; details: 2.0 kg/ha, after 21 days
Protocol: as §1

[14] = test system: Chenopodium album; assay: as above; details: 2.0 kg/ha, after 21 days
Protocol: as §1

[15] = test system: Cotton; assay: as above; details: 2.0 kg/ha, after 21 days
Protocol: as §1

[16] = test system: Amaranthus retroflexus; assay: as above; details: 2.0 kg/ha, after 21 days
Protocol: as §1

[17] = test system: Ipomea purpurea; assay: as above; details: 2.0 kg/ha, after 21 days
Protocol: as §1

[18] = test system: Rape; assay: as above; details: 2.0 kg/ha, after 21 days
Protocol: as §1

[19] = test system: Polygonum aviculare; assay: as above; details: 2.0 kg/ha, after 21 days
Protocol: as §1

[20] = test system: Maize; assay: as above; parameters: key: 0 = 0-20% damage, 5 = complete kill, vs untreated control; details: 2.0 kg/ha, after 21 days
Protocol: as §1

[21] = test system: Maize; assay: Post-emergence herbicidal test, young pot plants (Example 33); details: 2.0 kg/ha, after 14 days
Protocol: as §1

[22] = test system: Rice; assay: as above; details: 2.0 kg/ha, after 14 days
Protocol: as §1

[23] = test system: Winter wheat; assay: as above; parameters: key: 0 = 0-20% damage, 5 = complete kill, vs untreated control; details: 2.0 kg/ha, after 14 days
Protocol: as §1

[24] = test system: Japanese millet; assay: Post-emergence herbicidal activity (Example 32); details: 3 weeks after spraying
Protocol: (§2) Concentrated formulations of the compounds of the invention were prepared by: • a) in the case of oils and waxy solids, dissolving the compound in toluene containing 7% v/v "Teric" N13 ("Teric" is a Trade MarK and "Teric" N13, a product of ethoxylation of nonylphenol, is available from ICI Australia Limited) and 3% v/v "Kemmat" SC15B ("Kemmat" is a Trade Mark and "Kemmat" SC15B is a formulation of calcium dodecylbenzene sulfonate); or • b) in the case of crystalline solids, adding 5 parts by weight of the compound and 1 part by weight of . ''Dyapol" PT ("Dyapol" is a Trade Mark and "Dyapol" PT is an anionic suspending agent) to 94 parts by weight of an aqueous solution containing 0.25% v/v of "Teric" N8 (a product of ethoxylation of nonylphenol) and ball-milling the mixture to produce a stable suspension. The emulsifiable concentrates and suspensions were then diluted with water to give an aqueous composition of the required concentration suitable for use in the evaluation of the pre-emergence and post-emergence herbicidal activity of the compounds of the invention.
(§3) The post-emergent herbicidal activity of the compounds of the invention formulated as described in Example 30 was assessed by the following procedure.
(§4) The seeds of the test species were sown in rows 2 cm deep in soil contained in seed boxes. The monocotyledonous plants and the dicotyledonous plants were sown in separate seed boxes in duplicate. The four seed boxes were placed in a glasshouse, lightly watered with an overhead spray to initiate germination and then sub-irrigated as required for optimum plant growth. After the plants had grown to a height of about 10 to 12.5 cm one box of each of the monocotyledonous plants and the dicotyledonous plants was removed from the glasshouse and sprayed with the required quantity of a composition of the invention. After spraying the boxes were returned to the glasshouse for further 3 weeks and the effects of the treatment was visually assessed by comparison with the untreated controls. The results are presented in Table 4 where the damage to plants is rated on a scale of from 0 to 3 where 0 represents 0 to 25% damage, 3 represents 75 to 99% kill and 3+ represents 100% kill. A dash (-) means that no experiment was carried out.

[25] = test system: Wild Oats; assay: Post-emergence herbicidal activity (Example 32); details: 10 kg/ha, 3 weeks after spraying
Protocol: as §2, §3, §4

[26] = test system: Sunflower; assay: Post-emergence herbicidal activity (Example 32); details: 3 weeks after spraying
Protocol: as §2, §3, §4

[27] = test system: Mustard; assay: Post-emergence herbicidal activity (Example 32); details: 1 kg/ha, 3 weeks after spraying
Protocol: as §2, §3, §4

[28] = test system: Ryegrass; assay: Post-emergence herbicidal activity (Example 32); details: 3 weeks after spraying
Protocol: as §2, §3, §4

[29] = test system: Senecio vulgaris; assay: Post-emergence herbicidal test, young pot plants (Example 33); details: 2.0 kg/ha, after 14 days
Protocol: as §1

[30] = test system: Wheat; assay: Pre-emergence herbicidal activity (Example 31); parameters: key: 0-3 scale: 0 = 0-25% damage, 3 = 75-99% kill, 3+ = 100% kill; details: 10 kg/ha, after three weeks
Protocol: as §2
(§5) The pre-emergent herbicidal activity of the compounds of the invention formulated as described in Example 30 was assessed by the following procedure.
(§6) The seeds of the test species were sown in rows 2 cm deep in soil contained in seed boxes. The monocotyledonous plants and the dicotyledonous plants were sprayed with the required quantity of a composition of the invention. Two duplicate seed Doxes were prepared in the same manner but were not sprayed with a composition of the invention and were used for comparison purposes. All the boxes were placed in a glasshouse, lightly watered with an overhead spray to initiate germination and then sub-irrigated as required for optimum plant growth. After three weeks the boxes were removed from the glasshouse and the effect of the treatment was visually assessed. The results are presented in Table 3 where the damage to plants is rated on a scale of from 0 to 3 where 0 represents from 0 to 25% damage, 3 represents 75 to 99% kill and 3+ represents 100% kill.
(§7) A dash (-) means that no experiment was carried out.

[31] = test system: Ryegrass; assay: Pre-emergence herbicidal activity (Example 31); parameters: key: 0-3 scale: 0 = 0-25% damage, 3 = 75-99% kill, 3+ = 100% kill; details: 10 kg/ha, after three weeks
Protocol: as §2, §5, §6, §7

[32] = test system: Wheat; assay: Post-emergence herbicidal activity (Example 32); parameters: key: 0-3 scale: 0 = 0-25% damage, 3 = 75-99% kill, 3+ = 100% kill; details: 3 weeks after spraying
Protocol: as §2, §3, §4

[33] = test system: Japanese millet; assay: Pre-emergence herbicidal activity (Example 31); details: 10 kg/ha, after three weeks
Protocol: as §2, §5, §6, §7

[34] = test system: Wild Oats; assay: Pre-emergence herbicidal activity (Example 31); details: 10 kg/ha, after three weeks
Protocol: as §2, §5, §6, §7

[35] = test system: Sunflower; assay: Pre-emergence herbicidal activity (Example 31); details: 10 kg/ha, after three weeks
Protocol: as §2, §5, §6, §7

[36] = test system: Mustard; assay: Pre-emergence herbicidal activity (Example 31); details: 10 kg/ha, after three weeks
Protocol: as §2, §5, §6, §7

[37] = test system: Ipomea; assay: Pre-emergence herbicidal activity (Example 31); details: 10 kg/ha, after three weeks
Protocol: as §2, §5, §6, §7

COC(=O)C(C)Oc1ccc(Nc2ccc(C(F)(F)F)cc2[N+](=O)[O-])cc1Cl (centres unmarked) [Compound 116]
herbicidal damage, Rc [1]: 4
damage to test plants, Sb [2]: 3
damage to test plants, Sy [3]: 0 (0 is 0 to 20% damage)
damage to test plants, Ca [4]: 0 (0 is 0 to 20% damage)
damage to test plants, Ct [5]: 0 (0 is 0 to 20% damage)
damage to test plants, Am [6]: 0 (0 is 0 to 20% damage)
damage to test plants, Ip [7]: 0 (0 is 0 to 20% damage)
damage to test plants, Rp [8]: 0 (0 is 0 to 20% damage)
damage to test plants, Pi [9]: 0 (0 is 0 to 20% damage)
herbicidal damage, Ww [10]: 4
herbicidal damage, Sn [11]: 0 (0 is 0 to 20% damage)
herbicidal damage, Sb [12]: 0 (0 is 0 to 20% damage)
herbicidal damage, Sy [13]: 0 (0 is 0 to 20% damage)
herbicidal damage, Ca [14]: 0 (0 is 0 to 20% damage)
herbicidal damage, Ct [15]: 0 (0 is 0 to 20% damage)
herbicidal damage, Am [16]: 0 (0 is 0 to 20% damage)
herbicidal damage, Ip [17]: 0 (0 is 0 to 20% damage)
herbicidal damage, Rp [18]: 0 (0 is 0 to 20% damage)
herbicidal damage, Pi [19]: 0 (0 is 0 to 20% damage)
herbicidal damage, Mz [20]: 3
damage to test plants, Mz [21]: 4
damage to test plants, Rc [22]: 4
damage to test plants, Ww [23]: 4

COC(=O)C(C)Oc1ccc(Nc2ccc([N+](=O)[O-])cc2[N+](=O)[O-])cc1 (centres unmarked) [Compound 15]
herbicidal damage, Rc [1]: 0 (0 is 0 to 20% damage)
damage to plants, Jm ([24]; 1 kg/ha): 3 (3 represents 75 to 99% kill)
damage to plants, Jm ([24]; 5 kg/ha): 3+ (3+ represents 100% kill)
damage to plants, Jm ([24]; 10 kg/ha): 3+ (3+ represents 100% kill)
damage to plants, Ot [25]: 2
damage to plants, Sf ([26]; 1 kg/ha): 0 (0 represents 0 to 25% damage)
damage to plants, Sf ([26]; 5 kg/ha): 0 (0 represents 0 to 25% damage)
damage to plants, Sf ([26]; 10 kg/ha): 0 (0 represents 0 to 25% damage)
damage to plants, Ms [27]: 1
damage to plants, Rg ([28]; 1 kg/ha): 1
damage to plants, Rg ([28]; 5 kg/ha): 3+ (3+ represents 100% kill)
damage to plants, Rg ([28]; 10 kg/ha): 3+ (3+ represents 100% kill)
damage to test plants, Sn [29]: 0 (0 is 0 to 20% damage)
damage to test plants, Sb [2]: 0 (0 is 0 to 20% damage)
damage to test plants, Sy [3]: 2
damage to test plants, Ca [4]: 1
damage to test plants, Ct [5]: 2
damage to test plants, Am [6]: 2
damage to test plants, Ip [7]: 0 (0 is 0 to 20% damage)
damage to test plants, Rp [8]: 2
damage to test plants, Pi [9]: 0 (0 is 0 to 20% damage)
herbicidal damage, Ww [10]: 0 (0 is 0 to 20% damage)
herbicidal damage, Sn [11]: 0 (0 is 0 to 20% damage)
herbicidal damage, Sb [12]: 0 (0 is 0 to 20% damage)
herbicidal damage, Sy [13]: 1
herbicidal damage, Ct [15]: 0 (0 is 0 to 20% damage)
herbicidal damage, Ip [17]: 0 (0 is 0 to 20% damage)
herbicidal damage, Rp [18]: 0 (0 is 0 to 20% damage)
damage to plants, Wh [30]: 0 (0 represents from 0 to 25% damage)
damage to plants, Rg [31]: 3 (3 represents 75 to 99% kill)
herbicidal damage, Mz [20]: 2
damage to test plants, Mz [21]: 4
damage to test plants, Rc [22]: 2
damage to plants, Wh ([32]; 1 kg/ha): 0 (0 represents 0 to 25% damage)
damage to plants, Wh ([32]; 5 kg/ha): 2
damage to plants, Wh ([32]; 10 kg/ha): 2
damage to test plants, Ww [23]: 2
damage to plants, Jm [33]: 3 (3 represents 75 to 99% kill)
damage to plants, Ot [34]: 1
damage to plants, Sf [35]: 0 (0 represents from 0 to 25% damage)
damage to plants, Ms [36]: 0 (0 represents from 0 to 25% damage)
damage to plants, Ip [37]: 0 (0 represents from 0 to 25% damage)
